Non-standard residues stand in square brackets, D forms with d. Residues, ends and D or L forms follow the SMILES beside them. pS = N[C@@H](COP(=O)(O)O)C(=O)O
Biological target: T1, Alkaline phosphatase, calf intestinal (ALP) (Bos taurus, UniProt P19111)
T1 construct: purchased New England BioLabs (printed 'NEW ENGLANK BioLabs Inc.') M0290
Test: Stability of phosphate/phosphonate group in the presence of ALP (HPLC)
Format: in vitro ADME
Conditions: 10 U mL^−1 ALP (calf intestinal), half an hour; peptide assemblies; HPLC read-out
Description: Figure 2 Characterization of LCPSs and their self‐assembly. a) FTIR characterization of different molecular structures among the LCPS peptides with a concentration of 10 mg mL^−1 LCPS assembly solution. b) Negatively stained TEM images showing the self‐assembled structures of LCPS‐OH, LCPS‐OP, and LCPS‐CP at pH 3.0, 5.0, 7.0, and 9.0. c) Zeta potential values of LCPSs at pH 7. The data are the means ± SD (n = 3 repeats per group). d) CD spectra of LCPS‐OH, LCPS‐OP, and LCPS‐CP assembly solutions (10 mg mL^−1) at pH 7. Self‐assembly of e) LCPS‐OP and f) LCPS‐CP after the addition of ALP. g) HPLC charts chromatograms of LCPS solutions with or without the addition of ALP. The LCPSs were incubated with 10 U mL^−1 ALP for half an hour.
The aggregated peptides were mineralized in the neutral condition directly as mentioned above, in the presence of 10 U mL^−1 ALP (calf‐intestinal). After assembling, 10 µL of the peptide assembly solution was diluted with equal volume of ddH2O. Then, 100 µL of the 1.35 × 10^−3 M CaCl2 solution containing 10 U mL^−1 ALP was added into the peptide assembly solution, and the resultant mixed solution was vibrated for 1 h to ensure the binding of calcium ions with the peptide aggregates. Next, 100 µL of the 0.81 × 10^−3 M K2HPO4 solution containing 10 U mL^−1 ALP was added dropwise for about 1 h while vibrating. […]

T1 sequence (P19111 20-533): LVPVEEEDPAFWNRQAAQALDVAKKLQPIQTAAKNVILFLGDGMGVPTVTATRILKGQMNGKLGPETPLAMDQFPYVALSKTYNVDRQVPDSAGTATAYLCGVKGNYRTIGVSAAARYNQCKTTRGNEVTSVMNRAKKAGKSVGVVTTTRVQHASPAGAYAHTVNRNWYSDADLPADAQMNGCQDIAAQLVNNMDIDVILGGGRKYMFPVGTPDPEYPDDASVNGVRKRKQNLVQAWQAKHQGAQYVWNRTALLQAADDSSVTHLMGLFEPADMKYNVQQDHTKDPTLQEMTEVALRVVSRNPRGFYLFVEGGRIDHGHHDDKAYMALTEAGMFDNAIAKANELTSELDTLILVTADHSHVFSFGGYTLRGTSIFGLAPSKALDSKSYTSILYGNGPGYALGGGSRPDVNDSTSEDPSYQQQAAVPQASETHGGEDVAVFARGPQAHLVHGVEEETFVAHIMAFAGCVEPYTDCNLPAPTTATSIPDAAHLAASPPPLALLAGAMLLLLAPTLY

N[C@@H](CO)C(=O)N[C@@H](Cc1ccc(O)cc1)C(=O)N[C@@H](COP(=O)(O)O)C(=O)NCC(=O)N[C@@H](Cc1ccc(O)cc1)C(=O)N[C@@H](CO)C(=O)O [LCPS‐OP] (H-SY[pS]GYS-OH)
stability of phosphate/phosphonate group in the presence of ALP: completely hydrolyzed

From article PMC8867149, “Phosphorylated and Phosphonated Low‐Complexity Protein Segments for Biomimetic Mineralization and Repair of Tooth Enamel” (Advanced Science, 2022)
